The text below walks through data of ChEMBL document CHEMBL2311286, “Design and synthesis of alkoxyindolyl-3-acetic acid analogs as peroxisome proliferator-activated receptor-γ/δ agonists” (Bioorg Med Chem Lett, 2013).

Structures are written as SMILES.

The target in test [1] is T1, Peroxisome proliferator-activated receptor delta (Mus musculus) (UniProt P35396).
T1 sequence (whole entry): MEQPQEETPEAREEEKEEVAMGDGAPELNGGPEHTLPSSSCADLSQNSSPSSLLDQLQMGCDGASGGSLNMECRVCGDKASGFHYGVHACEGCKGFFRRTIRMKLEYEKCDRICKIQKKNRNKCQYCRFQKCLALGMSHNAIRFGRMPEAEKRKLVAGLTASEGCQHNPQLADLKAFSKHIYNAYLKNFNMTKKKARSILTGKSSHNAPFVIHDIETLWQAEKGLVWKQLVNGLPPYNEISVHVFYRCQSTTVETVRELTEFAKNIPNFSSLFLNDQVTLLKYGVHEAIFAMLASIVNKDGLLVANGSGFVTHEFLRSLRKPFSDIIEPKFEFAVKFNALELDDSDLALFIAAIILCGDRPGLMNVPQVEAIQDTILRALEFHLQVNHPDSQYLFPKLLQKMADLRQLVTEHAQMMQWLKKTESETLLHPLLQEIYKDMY
The test is described as follows: Agonist activity at mouse PPARdelta assessed as maximum activation at 10 uM by in vitro functional transactivation assay relative to 0.1 uM GW0742.

Test [2] deals with T2, Peroxisome proliferator-activated receptor gamma (Mus musculus) (UniProt P37238).
T2 sequence (whole entry): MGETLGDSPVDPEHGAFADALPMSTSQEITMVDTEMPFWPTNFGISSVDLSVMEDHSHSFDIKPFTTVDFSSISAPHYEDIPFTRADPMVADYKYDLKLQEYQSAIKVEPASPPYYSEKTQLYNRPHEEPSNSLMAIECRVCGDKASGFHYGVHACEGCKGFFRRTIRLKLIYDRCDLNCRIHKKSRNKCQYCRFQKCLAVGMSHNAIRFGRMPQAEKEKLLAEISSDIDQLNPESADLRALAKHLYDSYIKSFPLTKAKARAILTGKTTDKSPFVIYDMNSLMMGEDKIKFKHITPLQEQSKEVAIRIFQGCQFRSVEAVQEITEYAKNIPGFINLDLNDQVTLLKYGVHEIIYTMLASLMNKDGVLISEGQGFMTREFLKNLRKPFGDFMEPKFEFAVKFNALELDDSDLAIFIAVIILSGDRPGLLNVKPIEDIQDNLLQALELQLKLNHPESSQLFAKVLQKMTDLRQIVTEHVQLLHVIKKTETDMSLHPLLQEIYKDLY
The test is described as follows: Agonist activity at mouse PPARgamma assessed as maximum activation at 10 uM by in vitro functional transactivation assay relative to 1 uM rosiglitazone.

Test [3] addresses T3, Peroxisome proliferator-activated receptor alpha (Mus musculus) (UniProt P23204).
T3 sequence (whole entry): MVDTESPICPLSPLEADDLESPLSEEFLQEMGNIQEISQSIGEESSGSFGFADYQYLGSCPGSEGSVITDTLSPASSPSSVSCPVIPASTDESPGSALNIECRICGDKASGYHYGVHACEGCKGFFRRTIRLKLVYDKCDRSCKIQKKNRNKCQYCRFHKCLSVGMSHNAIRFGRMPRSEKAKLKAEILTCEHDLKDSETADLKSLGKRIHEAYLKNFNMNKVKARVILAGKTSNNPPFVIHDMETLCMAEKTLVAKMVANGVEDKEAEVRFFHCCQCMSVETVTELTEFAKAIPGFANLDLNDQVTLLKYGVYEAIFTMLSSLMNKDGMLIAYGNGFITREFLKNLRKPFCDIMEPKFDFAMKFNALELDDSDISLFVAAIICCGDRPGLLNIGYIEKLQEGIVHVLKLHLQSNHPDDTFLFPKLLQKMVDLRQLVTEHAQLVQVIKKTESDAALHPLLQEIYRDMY
The test is described as follows: Agonist activity at mouse PPARalpha assessed as maximum activation at 10 uM by in vitro functional transactivation assay relative to 1 uM GW0746.

Consider `O=C(O)Cc1c[nH]c2cc(OCCCn3c4ccccc4c4ccccc43)ccc12`, for which the %max in test [1], in test [2] and in test [3] was below 10% in each case.

Turning to `O=C(O)Cc1c[nH]c2cc(OCCCN3c4ccccc4Oc4ccccc43)ccc12`, the %max in test [1], in test [2] and in test [3] was below 10% in each case.

Regarding `O=C(O)Cc1cn(Cc2ccccc2)c2ccc(OCCCN3c4ccccc4Oc4ccccc43)cc12`, the %max came out at 21.7% in test [1], 43.1% in test [2] and 12.8% in test [3].

Consider `O=C(O)Cc1c[nH]c2ccc(OCCCN3c4ccccc4Oc4ccccc43)cc12`, for which the figures for the %max in test [1], in test [2] and in test [3] were 16%, 29.4% and below 10%, respectively.

For the compound `O=C(O)Cc1cn(Cc2ccccc2)c2cc(OCCCn3c4ccccc4c4ccccc43)ccc12`, the %max in test [1], in test [2] and in test [3] was below 10% throughout.

For `O=C(O)Cc1cn(Cc2ccccc2)c2cc(OCCCN3c4ccccc4Oc4ccccc43)ccc12`, the results for the %max in test [1], in test [2] and in test [3] were 27.3%, below 10% and below 10%, respectively.

Regarding `O=C(O)Cc1c[nH]c2ccc(OCCCn3c4ccccc4c4ccccc43)cc12`, the %max in test [1] is 10.5%; in test [2], below 10%; in test [3], 10.1%.

Consider `O=C(O)Cc1cn(Cc2ccc(F)cc2)c2cc(OCCCN3c4ccccc4Oc4ccccc43)ccc12`, for which the results for the %max in test [1], in test [2] and in test [3] were 36.6%, 23.8% and below 10%, respectively.

In the case of `O=C(O)Cc1cn(Cc2ccccc2)c2ccc(OCCCn3c4ccccc4c4ccccc43)cc12`, the %max in test [1] was 41.3%; in test [2], 28.7%; in test [3], below 10%.
